Data: paper PMC12775434, “Ultra-large virtual screening unveils potent agonists of the neuromodulatory orphan receptor GPR139” (Nature Communications, 2025)
Several values for one entry are separate records, joined by “and”; a condition that tells them apart may be missing. Equal entries are not always repeated.

Legend:
Format in all cases: cell-based
[1] = biological target: T1, GPR139 (Homo sapiens, UniProt Q6DWJ6); experiment: Ca2+ mobilization assay, agonist mode, stable GPR139-CHOk1 cell line; settings: for EC50 / Emax: Supplementary Table 2, mean ± SEM; for EC50: read-out: pEC50 Ca2+ (converted); for Emax: normalized to Lundbeck Cmp 1a, read-out: Emax (%) Ca2+
T1 sequence (Q6DWJ6 1-353): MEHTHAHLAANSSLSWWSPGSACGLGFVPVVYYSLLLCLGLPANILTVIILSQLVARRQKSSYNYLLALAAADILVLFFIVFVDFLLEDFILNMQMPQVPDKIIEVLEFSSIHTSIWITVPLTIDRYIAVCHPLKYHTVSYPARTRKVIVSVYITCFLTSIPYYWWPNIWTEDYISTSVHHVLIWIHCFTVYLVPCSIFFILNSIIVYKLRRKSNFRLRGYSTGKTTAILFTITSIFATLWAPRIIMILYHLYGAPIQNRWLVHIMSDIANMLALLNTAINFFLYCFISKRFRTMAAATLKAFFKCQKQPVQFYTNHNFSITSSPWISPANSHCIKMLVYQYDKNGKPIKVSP
Procedure, shortened: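 Agonist activity of compounds is assessed in stably transfected CHO-K1 cells using the calcium dye Fluo-4 at 37 °C in HEPES-buffered HBSS (pH 7.4). Efficacy is expressed relative to the reference agonist Lundbeck Cmp 1a, set as 100%.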

[2] = biological target: T2, human muscarinic acetylcholine M1 receptor (M1R) (Homo sapiens, UniProt P11229); experiment: Ca2+ mobilization counter-screen in M1R-CHOk1 cells
T2 sequence (P11229 1-460): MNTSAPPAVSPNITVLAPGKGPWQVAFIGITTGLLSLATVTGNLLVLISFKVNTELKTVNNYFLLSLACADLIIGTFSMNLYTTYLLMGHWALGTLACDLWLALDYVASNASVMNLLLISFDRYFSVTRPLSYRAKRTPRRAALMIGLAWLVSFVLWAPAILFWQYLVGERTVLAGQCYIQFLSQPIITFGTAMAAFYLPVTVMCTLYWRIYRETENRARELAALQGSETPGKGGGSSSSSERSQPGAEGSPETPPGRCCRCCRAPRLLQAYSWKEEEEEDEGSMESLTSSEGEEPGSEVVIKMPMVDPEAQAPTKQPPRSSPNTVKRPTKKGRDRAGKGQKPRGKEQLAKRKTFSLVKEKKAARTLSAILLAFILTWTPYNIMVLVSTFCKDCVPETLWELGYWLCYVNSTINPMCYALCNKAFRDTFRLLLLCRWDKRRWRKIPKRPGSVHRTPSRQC
Procedure, shortened: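 M1R-CHOk1 cells seeded 20–24 h, loaded with 2 µM Fluo-4 AM (2.5 mM probenecid, 0.01% Pluronic F-68) for 1 h at 37 °C in HBSS/20 mM HEPES pH 7.4. Compounds added after baseline (≤0.3% DMSO); calcium fluorescence read at 37 °C, ex 485/em 525 nm.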

[3] = biological target: T1, GPR139; experiment: Ca2+ mobilization assay, antagonist mode (EC80 800 nM Lundbeck Cmp 1a after 20 min preincubation), GPR139-CHOk1
Procedure, shortened: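 Fluo-4-loaded GPR139-CHOk1 cells in HEPES-buffered HBSS (pH 7.4, 2.5 mM probenecid) given test compounds at 10 µM, then after 20 min challenged with 800 nM Lundbeck Cmp 1a (EC80). Calcium fluorescence read at 37 °C, 485/525 nm.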

[4] = Agonist mode, individual replicates (Supplementary Figure 4)
[5] = log [Compound] M = -4.5, individual replicate columns
[6] = log [Compound] M = -5.0, individual replicate columns
[7] = log [Compound] M = -5.5, individual replicate columns
[8] = log [Compound] M = -6.0, individual replicate columns
[9] = log [Compound] M = -6.5, individual replicate columns
[10] = log [Compound] M = -7.0, individual replicate columns
[11] = log [Compound] M = -7.5, individual replicate columns
[12] = log [Compound] M = -8.0, individual replicate columns
[13] = log [Compound] M = -8.5, individual replicate columns
[14] = log [Compound] M = -9.0, individual replicate columns
[15] = individual replicates (Supplementary Figure 5)
[16] = individual replicates (Supplementary Figure 4)

| EC50 [1] [µM] | Emax [1] [%] | SMILES | Ca2+ signal (% of Cmp 1a) [1, 4] | Ca2+ signal (% of Cmp 1a) [1, 5] | Ca2+ signal (% of Cmp 1a) [1, 6] | Ca2+ signal (% of Cmp 1a) [1, 7] | Ca2+ signal (% of Cmp 1a) [1, 8] | Ca2+ signal (% of Cmp 1a) [1, 9] | Ca2+ signal (% of Cmp 1a) [1, 10] | Ca2+ signal (% of Cmp 1a) [1, 11] | Ca2+ signal (% of Cmp 1a) [1, 12] | Ca2+ signal (% of Cmp 1a) [1, 13] | Ca2+ signal (% of Cmp 1a) [1, 14] | Ca2+ signal (% of Carbachol) [2, 15] | Ca2+ signal (% of Cmp 1a) [3, 16] | also measured |
| --- | --- | --- | --- | --- | --- | --- | --- | --- | --- | --- | --- | --- | --- | --- | --- | --- |
| 0.398 | 95 ± 10 | Cc1cccc(-c2nc(CC(=O)NC(C)c3ccccc3)no2)n1 (stereo not shown) [Compound 1.13, CC(C1=CC=CC=C1)NC(CC2=NOC(C3=NC(C)=CC=C3)=N2)=O] | 87 % of Cmp 1a and 109 % of Cmp 1a and 94 % of Cmp 1a | 113 % of Cmp 1a and 100 % of Cmp 1a and 105 % of Cmp 1a and 55 % of Cmp 1a | 98 % of Cmp 1a and 101 % of Cmp 1a and 89 % of Cmp 1a and 78 % of Cmp 1a | 85 % of Cmp 1a and 87 % of Cmp 1a and 83 % of Cmp 1a and 50 % of Cmp 1a | 76 % of Cmp 1a and 73 % of Cmp 1a (2×) and 42 % of Cmp 1a | 49 % of Cmp 1a (2×) and 40 % of Cmp 1a and 22 % of Cmp 1a | 28 % of Cmp 1a and 33 % of Cmp 1a and 12 % of Cmp 1a (2×) | 0 % of Cmp 1a and 14 % of Cmp 1a and -10 % of Cmp 1a and 13 % of Cmp 1a | 8 % of Cmp 1a and 0.667 % of Cmp 1a and -4 % of Cmp 1a and -5 % of Cmp 1a | 8 % of Cmp 1a and -4.67 % of Cmp 1a and -2.67 % of Cmp 1a and -3 % of Cmp 1a | 2 % of Cmp 1a (2×) and -0.333 % of Cmp 1a and -15 % of Cmp 1a | -3 % of Carbachol and 3 % of Carbachol and 7 % of Carbachol | 7 % of Cmp 1a and 16 % of Cmp 1a and -17 % of Cmp 1a | fold decrease in potency relative to a similar phenyl substituted compound (1.3) ([1]; Ca2+ mobilization EC50): 4- to 16 fold |
| 2 | 96 ± 6 | CCn1nc(-c2nc(CC(=O)NC(C)c3ccccc3)no2)cc1C (stereo not shown) [Compound 1.27, CCN1N=C(C2=NC(CC(NC(C3=CC=CC=C3)C)=O)=NO2)C=C1C] | 81 % of Cmp 1a and 93 % of Cmp 1a and 60 % of Cmp 1a | 101 % of Cmp 1a and 107 % of Cmp 1a and 86 % of Cmp 1a | 91 % of Cmp 1a and 71 % of Cmp 1a and 89 % of Cmp 1a | 56 % of Cmp 1a and 61 % of Cmp 1a and 76 % of Cmp 1a | 25 % of Cmp 1a and 33 % of Cmp 1a and 48 % of Cmp 1a | 9 % of Cmp 1a and 7 % of Cmp 1a and 10 % of Cmp 1a | 4.22 % of Cmp 1a and -3 % of Cmp 1a and 6.42 % of Cmp 1a | 8 % of Cmp 1a and 2.12 % of Cmp 1a and -0.804 % of Cmp 1a | 0.271 % of Cmp 1a and 9 % of Cmp 1a and -0.437 % of Cmp 1a | -3 % of Cmp 1a and 2.65 % of Cmp 1a and 6.66 % of Cmp 1a | 4 % of Cmp 1a and -0.687 % of Cmp 1a and 5 % of Cmp 1a | -1.81 % of Carbachol and 1.46 % of Carbachol and 5 % of Carbachol | 24 % of Cmp 1a and -1.33 % of Cmp 1a and 22 % of Cmp 1a | – |
| – | – | CN1CC(=O)N(c2cccc(NC(=O)C3Cc4ccccc43)c2)C1=O (stereo not shown) [Compound 9, CN1CC(=O)N(C1=O)C=2C=CC=C(NC(=O)C3CC=4C=CC=CC34)C2] | – | – | – | – | – | – | – | – | – | – | – | – | – | Ca2+ signal (% of Cmp 1a) ([1]; 0.1 µM, individual replicates (Supplementary Figure 3)): -6.9 % of Cmp 1a and -8.5 % of Cmp 1a; Ca2+ signal (% of Cmp 1a) ([1]; 1 µM, individual replicates (Supplementary Figure 3)): -0.2 % of Cmp 1a and -5.2 % of Cmp 1a; Ca2+ signal (% of Cmp 1a) ([1]; 10 µM, individual replicates (Supplementary Figure 3)): 18.7 % of Cmp 1a and 14.1 % of Cmp 1a; Ca2+ signal (% of Cmp 1a) ([1]; Agonist mode, individual replicates (Supplementary Figure 1)): 25 % of Cmp 1a and 10 % of Cmp 1a and 48 % of Cmp 1a; Ca2+ signal (% of Carbachol) ([2]; individual replicates (Supplementary Figure 2)): -9 % of Carbachol and -19 % of Carbachol; Ca2+ signal (% of Cmp 1a) ([3]; individual replicates (Supplementary Figure 1)): 73.6349 % of Cmp 1a and 73.421 % of Cmp 1a and 97.2374 % of Cmp 1a |
